The record followed here is patent publication US20260226022A1, “CRYSTAL FORM AND USE OF PARP7 INHIBITOR AND SALT THEREOF” (QILU PHARMACEUTICAL CO., LTD., priority 2023, published 2026).

Molecules are shown by their SMILES. Entries after “also recorded” stand apart in the source; their conditions may differ.

For one data set, the target named is T1, PARP7 (Homo sapiens, UniProt Q7Z3E1).
T1 sequence (Q7Z3E1 1-657): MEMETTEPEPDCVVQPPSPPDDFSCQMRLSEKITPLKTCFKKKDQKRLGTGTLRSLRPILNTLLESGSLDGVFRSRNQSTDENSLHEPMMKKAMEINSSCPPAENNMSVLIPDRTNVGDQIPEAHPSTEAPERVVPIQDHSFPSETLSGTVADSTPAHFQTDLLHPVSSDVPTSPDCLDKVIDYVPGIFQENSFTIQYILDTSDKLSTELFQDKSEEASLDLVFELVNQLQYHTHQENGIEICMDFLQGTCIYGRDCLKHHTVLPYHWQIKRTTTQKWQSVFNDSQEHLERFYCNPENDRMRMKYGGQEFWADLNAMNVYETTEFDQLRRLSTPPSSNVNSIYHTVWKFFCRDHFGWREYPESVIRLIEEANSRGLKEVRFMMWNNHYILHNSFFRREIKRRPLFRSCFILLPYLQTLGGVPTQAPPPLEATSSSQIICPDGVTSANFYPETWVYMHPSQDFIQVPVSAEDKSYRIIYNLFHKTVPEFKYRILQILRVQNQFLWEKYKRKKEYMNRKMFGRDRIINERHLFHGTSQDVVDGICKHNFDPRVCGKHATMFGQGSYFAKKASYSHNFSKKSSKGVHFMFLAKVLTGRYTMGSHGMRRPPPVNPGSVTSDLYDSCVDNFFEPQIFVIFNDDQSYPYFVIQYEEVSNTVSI
As to the kind of experiment: PARP7 in vitro enzymatic assay. The format is biochemical. As for the experimental part: In this experiment, the inhibitory effect of the compound of formula (I) on PARP7 enzyme activity was tested by serial dilution of the tested compounds and assayed in replicates. 1. A histone-coated 384-well plate was prepared by adding 25 μL of histone solution to each well and incubating at 4° C. overnight. 2. PBST buffer, blocking buffer and assay buffer were prepared. 3. The histone-coated 384-well plate was washed 3 times using PBST buffer. Blocking was performed at room temperature for 1 hour using 50 μL of blocking buffer. The plate was washed 3 times using PBST buffer. 4. Compound preparation: A 2000× compound was prepared in a 96-well source plate. 50 nL of the compound was transferred from the source plate to a 96-well intermediate plate. Each well was supplemented with 39.95 μL of assay buffer. The plate was shaken well and centrifuged at 1000 rpm for 1 minute. 5 μL of the compound in DMSO was transferred to each well. 5. Enzymatic reaction: An enzyme mixture was incubated at 25° C. for 10 minutes. 10 μL of the enzyme mixture was added and incubated with the compound for 10 minutes at room temperature. 10 μL of assay buffer was added to the negative control wells of the assay plate. 10 μL of 2.5× Biotin-NAD+ was added to each well, followed by incubation at 25° C. for 60 min. […] The plate was immediately read using Paradigm and detected for reads at Ex550/Em620. […]

A short description of data set [1]: In vivo pharmacokinetic determination in mice (intravenous bolus and oral). Also on record: species or system C57BL/6 mice.
Data set [2] can be described thus: In vivo pharmacokinetic determination in rats (intravenous bolus and oral). The arrangement: species or system SD rats. The source says: To study the in vivo plasma pharmacokinetic behavior of the compounds of the present application after single intravenous bolus injection and oral administration, using male C57BL/6 mice or SD male rats as tested animals.
Healthy adult C57BL/6 mice or SD rats (3 rats/group), male, from Shanghai Jihui Laboratory Animal Breeding Co., Ltd. and Charles River Laboratories Co., Ltd.
The intravenous bolus injection and oral groups were consisted of 3 mice or rats, and the dose of intravenous bolus injection was 1 mg/kg in a volume of 5 mL/kg, and the dose of oral administration was 5 mg/kg in a volume of 10 mL/kg. The solvent was 5% DMSO/5% Kolliphor HS15/90% Saline.
After the animals were administered, 0.02 mL of blood was collected intravenously at 0.0833(IV), 0.25, 0.5, 1, 2, 4, 8, and 24 hours. Blood was placed in EDTA-K2 tubes, centrifuged at 4° C. and 4600 rpm for 5 min to separate the plasma, and stored at −80° C.
1) 10 μL of plasma sample was precipitated by adding 200 μL of acetonitrile, vortexed and mixed, and centrifuged for 15 min.
2) The supernatant after treatment was diluted with water, and then analyzed for the concentration of the tested compounds by LC/MS/MS.
• Liquid phase conditions: Shimadzu LC-30AD; • Mass spectrometry conditions: AB Sciex API 5500; • Chromatographic column: Phenomenex Kinetex 2.6 μm C18; • Mobile phase: A: 5 mM ammonium acetate aqueous solution (containing 0.05 vol % of formic acid); B: acetonitrile (containing 0.1 vol % of formic acid) flow rate: 0.5 mL/min;
Pharmacokinetic parameters were calculated using WinNonlin 8.0 and the pharmacokinetic parameters of the drugs administered intravenously and orally to mice or rats are shown in Tables 17 and 18 below. Wherein, “Dose” denotes the administered dose, “CL” denotes the plasma clearance, “Vss” denotes the volume of distribution at steady state of the drug, “T1/2” denotes the half-life of the drug, “AUC” denotes the area under the concentration-time curve. “Cmax” denotes the peak drug concentration, and “F” indicates bioavailability.

A short description of data set [3]: Hygroscopicity test by dynamic vapor sorption (DVS). The settings on record: for Hygroscopicity evaluation: Chinese Pharmacopoeia 2020 classes; for Weight gain at 80% RH / Weight gain at 90% RH: DVS, 25° C.; for Crystal form after DVS: XRPD before and after the DVS test. It counts as physicochemical. As for the experimental part: The moisture adsorption of the sample was determined using a dynamic vapor sorption instrument from DVS Intrinsic. The sample was placed in a tared sample basket and weighed by the instrument automatically and analyzed according to the parameters in Table 10.

Data set [4] is described as follows: Influence factor tests (stability at temperature, humidity, light; HPLC purity and XRPD). The format is physicochemical. Here is the method:
The purity was assayed using HPLC and the crystal form was assayed using XRPD on day 0, 2 and 7, and the experimental results are shown in Table 11.
The purity was assayed using HPLC and the crystal form was assayed using XRPD on day 0, 5 and 10, and the experimental results are shown in Table 12.

Where [5] appears, read: male, mouse, plasma, C57BL/6 mice, intravenous, 1 mg/kg.
Setting [6] is: male, mouse, plasma, C57BL/6 mice, oral, 5 mg/kg.
The mark [7] stands for this setting: male, rat, plasma, SD rats, intravenous, 1 mg/kg.
Where [8] appears, read: male, rat, plasma, SD rats, oral, 5 mg/kg.

As to `O=C(OCCc1c[nH]c(=O)c(C(F)(F)F)c1)N1CCN(c2ncc(C(F)(F)F)cn2)CC1` [Compound of formula (I), 2-(6-oxo-5-(trifluoromethyl)-1,6-dihydropyridin-3-yl)ethyl-4-(5-(trifluoromethyl)pyrimidin-2-yl) piperazine-1-carboxylate], the “Inhibition of PARP7 enzyme activity (conclusion in words)” value on PARP7 is “can effectively inhibit PARP7 enzyme activity”. Also, the F stood at 80% in data set [1] (C57BL/6 mice, oral, 5 mg/kg) and 47% in data set [2] (SD rats, oral, 5 mg/kg). Further, the “Exposure in plasma compared with control compound RBN-2397” value was “significantly higher exposure” in data set [1] (mouse plasma, same dose, intravenous bolus injection and oral administration); “significantly higher exposure” in data set [2] (rat plasma, same dose, intravenous bolus injection and oral administration).

`O=C(OCCc1c[nH]c(=O)c(C(F)(F)F)c1)N1CCN(c2ncc(C(F)(F)F)cn2)CC1` [Crystal form IV]: the Hygroscopicity evaluation entry in data set [3] (listed as crystal form IV) is listed as “slight hygroscopicity; also recorded: slightly hygroscopic”. The “Weight gain at 80% RH” value in data set [3] and in data set [3] (listed as crystal form IV) was 1.07% each time. Also, in data set [3], the “Weight gain at 90% RH” value amounted to 1.11%. For the same compound, the “Crystal form after DVS” value in data set [3] (listed as crystal form IV) was “no transformation of the crystal; also recorded: unchanged”. In addition, the “Purity (Area %)” value turned out to be 99.72 Area % in data set [4] (40° C./75% RH, day 2); 99.62 Area % in data set [4] (40° C./75% RH, day 7); 99.73 Area % in data set [4] (60° C., day 2); 99.65 Area % in data set [4] (60° C., day 7); 99.73 Area % in data set [4] (T0, day 0). The “Physicochemical stability (conclusion in words)” value in data set [4] (high humidity) and in data set [4] (high temperature) was “relatively stable” throughout.

As for `O=C(OCCc1c[nH]c(=O)c(C(F)(F)F)c1)N1CCN(c2ncc(C(F)(F)F)cn2)CC1.[Na+]` [Crystal form I], the Hygroscopicity evaluation entry in data set [3] is listed as “Hygroscopic (hygroscopic weight gain of less than 15.0% but not less than 2.0%)”; in data set [3] (listed as crystal form I), “had hygroscopicity; also recorded: slightly hygroscopic”. Moreover, the “Weight gain at 80% RH” value in data set [3] and in data set [3] (listed as crystal form I) was 13.29% throughout. Further, the “Weight gain at 90% RH” value in data set [3] was found to be 13.77%. In addition, the “Purity (Area %)” value in data set [4] (25° C./75% RH, day 5) was 99.69% Area %; in data set [4] (25° C./75% RH, day 10), 99.72% Area %; in data set [4] (25° C./90% RH, day 5), 99.71% Area %; in data set [4] (25° C./90% RH, day 10), 99.74% Area %; in data set [4] (40° C., day 5), 99.71% Area %; in data set [4] (40° C., day 10) it was 99.70% Area %. Besides, the “Purity (Area %)” value in data set [4] (60° C., day 5) amounted to 99.72% Area %; in data set [4] (60° C., day 10) it was 99.67% Area %; in data set [4] (Light exposure, day 5), 99.67% Area %; in data set [4] (Light exposure, day 10), 99.61% Area %; in data set [4] (T0, day 0), 99.69% Area %. In addition, the XRPD entry in data set [4] (Light exposure, day 5) was “Crystal form I”. Also, the “Physicochemical stability (conclusion in words)” value in data set [4] (high humidity) is recorded as “a transformation of the crystal occurs under high humidity conditions”; in data set [4] (high temperature), “physicochemical stable at high temperature”.

Consider `O=C(OCCc1c[nH]c(=O)c(C(F)(F)F)c1)N1CCN(c2ncc(C(F)(F)F)cn2)CC1` [Crystal form X], for which, in data set [3] (listed as crystal form X), the Hygroscopicity evaluation result is recorded as “slight hygroscopicity”, the “Weight gain at 80% RH” value was determined as 1.4% and the “Crystal form after DVS” value is recorded as “no transformation of the crystal”.

As for `C[C@@H](COCCC(=O)N1CCN(c2ncc(C(F)(F)F)cn2)CC1)Nc1cn[nH]c(=O)c1C(F)(F)F` [RBN-2397], the F worked out at 14% in data set [1] (C57BL/6 mice, oral, 5 mg/kg) and 27% in data set [2] (SD rats, oral, 5 mg/kg). The AUC – broadly, concentration integrated over time – in data set [1] (setting [5]) was found to be 288 ng·h/mL; in data set [1] (setting [6]) it was 203 ng·h/mL; in data set [2] (setting [7]) it was 193 ng·h/mL; in data set [2] (setting [8]) it was 264 ng·h/mL. Further, the clearance in data set [1] (setting [5]) is 56.7 mL/min/kg; in data set [2] (setting [7]) it was 85 mL/min/kg. The Vd in data set [1] (male, mouse, plasma, C57BL/6 mice, intravenous, 1 mg/kg, read-out: Vss) amounted to 0.6 L/kg; in data set [2] (male, rat, plasma, SD rats, intravenous, 1 mg/kg, read-out: Vss) it was 1.2 L/kg. The results for the Cmax in data set [1] (setting [6]) and in data set [2] (setting [8]) were 612 ng/mL and 319 ng/mL, respectively. The half-life (as a rule, the time in which the quantity being followed falls by half) in data set [2] (setting [7]) is 12 min.
